Laboratory results reported in patent publication US10294229B2, “Heteroaryl substituted aminopyridine compounds” (BRISTOL-MYERS SQUIBB COMPANY, priority 2015, dated 2019).

Legend:
IRAK4 = IRAK4 (Homo sapiens (Human), UniProt Q9NWZ3); assay: IRAK4 Inhibition Assay; format: biochemical; settings: ATP 500 μM; IRAK4 0.6 nM
How it was run: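 Readout: electrophoretic (LabChip) separation of fluorescent peptide substrate from phosphorylated product after EDTA quench. Reactions ran 60 min at room temperature with 0.6 nM IRAK4, 1.5 μM peptide and 500 μM ATP; inhibition referenced to no-enzyme (100%) and vehicle (0%) controls.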

Caco-2 cells = assay: Caco-2 Permeability Assay; format: in vitro ADME; settings: test compound 3 μM
How it was run: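 Bidirectional permeability measured over 2 h at 37° C, compound dosed at 3 μM in the donor compartment (apical for absorptive, basolateral for secretive) with plain buffer as receiver.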

[1] = tested on: Human whole blood stimulated with a TLR2 agonist (lipoteichoic acid), IL-6 levels; assay: IRAK4 Whole Blood Assay; format: cell-based; settings: lipoteichoic acid 10 μg/mL
How it was run: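 IL-6 was quantified by cytometric bead assay in supernatants of human blood (ACD-A) stimulated for 5 h with lipoteichoic acid at 10 μg/mL final. Compound exposure preceded stimulation for 60 min at 37 °C, 5% CO2.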

Sequence of IRAK4 (Q9NWZ3 whole entry, species assumed): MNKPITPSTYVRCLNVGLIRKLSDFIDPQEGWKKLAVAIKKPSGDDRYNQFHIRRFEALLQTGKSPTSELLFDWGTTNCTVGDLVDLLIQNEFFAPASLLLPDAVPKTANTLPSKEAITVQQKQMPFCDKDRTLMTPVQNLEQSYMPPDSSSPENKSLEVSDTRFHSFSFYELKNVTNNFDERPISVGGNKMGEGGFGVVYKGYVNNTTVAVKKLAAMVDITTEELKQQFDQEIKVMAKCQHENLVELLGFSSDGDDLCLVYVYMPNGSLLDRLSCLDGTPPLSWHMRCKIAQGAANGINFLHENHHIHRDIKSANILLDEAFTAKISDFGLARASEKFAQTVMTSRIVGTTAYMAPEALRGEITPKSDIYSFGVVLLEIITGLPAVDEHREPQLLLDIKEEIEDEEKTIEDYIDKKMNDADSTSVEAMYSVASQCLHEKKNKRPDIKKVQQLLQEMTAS

Row | IC50 (IRAK4) [nM] | Caco-2 Permeability (Caco-2 cells; listed as 400, Isomer 1) [nm/s] | EC50 ([1]; Homo sapiens) [nM] | Caco-2 Permeability (Caco-2 cells) [nm/s] | EC50 [1] [nM] | SMILES
1 | 3 | 224 | 230 |  |  | CC(C)Nc1cc(-n2ncc3cc(C#N)cnc32)ncc1-c1cc(C2COCCN2)no1 (single isomer, unassigned) [Example 400, Isomer 1, 1-(4-(isopropylamino)-5-(3-(morpholin-3-yl)isoxazol-5-yl)pyridin-2-yl)-1H-pyrazolo[3,4-b]pyridine-5-carbonitrile]
2 | 8 |  |  | 104 | 1310 | CC(C)Nc1cc(-n2ncc3cc(C#N)cnc32)ncc1-c1cn(C2CCOC2)nn1 (stereo not drawn) [Example 215, 1-(4-(isopropylamino)-5-(1-(tetrahydrofuran-3-yl)-1H-1,2,3-triazol-4-yl)pyridin-2-yl)-1H-pyrazolo[3,4-b]pyridine-5-carbonitrile]
3 | 2 |  |  | 32 | 290 | CC(C)Nc1cc(-n2ncc3cc(C#N)cnc32)ncc1-c1cn([C@@H]2CCN(S(C)(=O)=O)C[C@H]2F)nn1 (single isomer, unassigned) [Example 211, 1-(5-(1-((trans)-3-fluoro-1-(methylsulfonyl)piperidin-4-yl)-1H-1,2,3-triazol-4-yl)-4-(isopropylamino)pyridin-2-yl)-1H-pyrazolo[3,4-b]pyridine-5-carbonitrile]
